Data reported in patent publication US7390813B1, “Pyridylpiperazines and aminonicotinamides and their use as therapeutic agents” (Xenon Pharmaceuticals Inc., priority 2001, dated 2008).
Read-outs that look alike come from different tables or passages of the source.

Legend:
[1] = target: T1, stearoyl-CoA desaturase (SCD) (Mus musculus, UniProt P13516); test: SCD mouse liver microsome assay (tritiated stearoyl-CoA desaturation); format: biochemical; conditions: for % Remaining SCD activity compared to DMSO control, average: mouse liver microsomes 100 μg, 15 min RT preincubation, 15 min RT desaturation
T1 construct: % Remaining SCD activity compared to DMSO control in mouse liver microsome assay; from tissue; host or cells: mouse liver microsomes
T1 sequence (P13516 1-355): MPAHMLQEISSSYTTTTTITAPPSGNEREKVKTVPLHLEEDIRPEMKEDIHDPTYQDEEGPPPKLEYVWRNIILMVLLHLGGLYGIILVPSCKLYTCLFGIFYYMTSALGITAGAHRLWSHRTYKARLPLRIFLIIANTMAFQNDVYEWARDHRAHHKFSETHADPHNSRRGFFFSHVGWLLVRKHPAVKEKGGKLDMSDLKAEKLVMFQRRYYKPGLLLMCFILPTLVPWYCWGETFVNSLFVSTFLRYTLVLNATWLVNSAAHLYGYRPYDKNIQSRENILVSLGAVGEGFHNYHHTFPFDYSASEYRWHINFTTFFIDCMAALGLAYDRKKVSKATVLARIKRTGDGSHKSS
Description: The identification of compounds of the invention was readily accomplished using the SCD enzyme and microsomal assay procedure described in Brownlie et al, supra.
Briefly, mouse or human liver microsomes (induced for SCD1 expression and containing cytochrome b5 and cytochrome b5 reductase) and NADH are suspended in buffer with a test compound, and reaction is initiated by addition of 0.025 mM tritiated stearoyl-CoA. This ligand is tritiated at the C9 and C10 position only. The reaction is allowed to proceed for between 5 and 20 minutes at room temperature, whereupon it is halted by addition of acid. Activated charcoal is then added, mixed, and centrifuged to separate labeled substrate from labeled water. An aliquot of supernatant is than tested for radioactivity using liquid scintillation counting. This is taken as a measure of delta-9 desaturase activity.
The compounds and compositions of the invention were tested in mouse liver microsomes, 100 μg for 15 minutes at room temperature pre-incubation with the compound and 15 minutes at room temperature desaturation period. […] Identification numbers are the same as those indicated in FIGS. 1 and 2 showing the structures and characteristics of the compounds.
% Remaining SCD activity compared to DMSO control in mouse liver microsome assay at concentration of test compound indicated. Compounds tested in mouse liver microsomes, 100 μg, 15 min RT preincubation with compound, 15 min RT desaturation period, Large volume bench-top tube method.

stearoyl-CoA desaturase = test: Fatty acid composition in rats after repeated dosing; format: in vivo; conditions: 9 doses (2 per day), 30 mg/kg body weight, HCl salt
Excerpt: A highly preferred compound of the invention has the structure of Formula I, wherein R1 is H and R2 is isopentyl, X=C, n=2, m=1 and R3=2-trifluoromethylphenyl.

[2] = Table 5, % remaining SCD activity at 10 μM, mouse microsome assay
[3] = Table 5, % remaining SCD activity at 0.1 μM, mouse microsome assay
[4] = Table 5, % remaining SCD activity at 1 μM, mouse microsome assay

% Remaining SCD activity compared to DMSO control, average ([1]; 0.1 uM test compound) [%] | % Remaining SCD activity compared to DMSO control, average ([1]; 1 uM test compound) [%] | % Remaining SCD activity compared to DMSO control, average ([1]; 10 uM test compound) [%] | % Activity 10 μM [1, 2] [%] | % Activity 0.1 μM [1, 3] [%] | % Activity 1 μM [1, 4] [%] | IC50 ([1]; Table 5, SCD inhibition, read-out: IC50) [µM] | % of the activity inhibited ([1]; 10 μM concentration of the compound) [%] | activity at 0.1 µM [1, 3] [%] | activity at 1 µM [1, 4] [%] | activity at 10 µM [1, 2] [%] | IC50 ([1]; stated in summary text, read-out: IC50 value) [µM] | SMILES | changes in fatty acid composition (stearoyl-CoA desaturase)
86.33 | 32.64 | 3.41 | 3.41 |  |  |  |  |  |  |  |  | Cc1ccsc1C(=O)N1CCN(c2ccc(C(=O)NCCc3cccc(Cl)c3)cn2)CC1 [Compound X18] | 
38.00 | 5.38 | 1.97 | 2 | 38 | 5.4 |  |  |  |  |  |  | CCCCCNC(=O)c1ccc(N2CCN(C(=O)c3cc(Cl)ccc3Cl)CC2)nc1 [Compound X06] | 
57.77 | 9.05 | 1.42 | 1.4 | 58 | 9.1 |  |  |  |  |  |  | O=C(NCCc1cccc(Cl)c1)c1ccc(N2CCN(C(=O)c3ccccc3C(F)(F)F)CC2)nc1 [Compound X01] | 
25.68 | 5.49 | 1.27 | 1.3 | 26 | 5.5 |  |  |  |  |  |  | CC(C)CCNC(=O)c1ccc(N2CCN(C(=O)c3ccccc3Br)CC2)nc1 [Compound X02] | 
75.14 | 18.59 | 3.57 | 3.57 |  |  |  |  |  |  |  |  | CCCCNC(=O)c1ccc(N2CCN(C(=O)c3ccccc3Br)CC2)nc1 [Compound X19] | 
61.74 | 10.59 | 1.01 | 1.01 |  |  |  |  |  |  |  |  | COc1ccc(Br)c(C(=O)N2CCN(c3ccc(C(=O)NCCCc4ccccc4)cn3)CC2)c1 [Compound X17] | 
29.72 | 3.37 | 1.07 | 1.1 | 30 | 3.4 |  |  |  |  |  |  | O=C(NCCCc1ccccc1)c1ccc(N2CCN(C(=O)c3cc(Cl)ccc3Cl)CC2)nc1 [Compound X10] | 
 |  |  |  |  |  |  |  |  |  |  |  | CC(C)CCNC(=O)c1ccc(N2CCN(C(=O)c3ccccc3C(F)(F)F)CC2)nc1 | changes in fatty acid composition consistent with inhibition of SCD activity
63.58 | 14.80 | 2.69 | 2.7 | 64 | 15 |  |  |  |  |  |  | CCCCNC(=O)c1ccc(N2CCN(C(=O)c3ccccc3C(F)(F)F)CC2)nc1 [Compound X09] | 
44.95 | 6.46 | 1.22 | 1.2 | 45 | 6.5 |  |  |  |  |  |  | CCCCCCNC(=O)c1ccc(N2CCN(C(=O)c3ccccc3C(F)(F)F)CC2)nc1 [Compound X15] | 
36.54 | 5.48 | 1.29 | 1.3 | 37 | 5.5 |  |  |  |  |  |  | O=C(NCCc1ccccc1)c1ccc(N2CCN(C(=O)c3ccccc3Br)CC2)nc1 [Compound X04] | 
25.41 | 3.67 | 1.72 | 1.7 | 25 | 3.7 | 0.037 |  |  |  |  |  | CCCCCNC(=O)c1ccc(N2CCN(C(=O)c3ccccc3C(F)(F)F)CC2)nc1 [Compound X11] | 
31.35 | 7.01 | 2.06 | 2.1 | 31 | 7 |  |  |  |  |  |  | CC(C)CCNC(=O)c1ccc(N2CCN(C(=O)c3cccc4ccccc34)CC2)nc1 [Compound X16] | 
29.87 | 3.91 | 1.15 | 1.2 | 30 | 3.9 |  |  |  |  |  |  | O=C(NCCc1ccccc1)c1ccc(N2CCN(C(=O)c3cc(Cl)ccc3Cl)CC2)nc1 [Compound X12] | 
38.24 | 7.44 | 1.39 | 1.4 | 38 | 7.4 |  |  |  |  |  |  | CC(C)CCNC(=O)c1ccc(N2CCN(C(=O)c3ccc(Cl)cc3Cl)CC2)nc1 [Compound X14] | 
74.82 | 33.28 | 3.94 | 3.94 |  |  |  |  |  |  |  |  | Cc1ccccc1CC(=O)N1CCN(c2ccc(C(=O)NCCC(C)C)cn2)CC1 [Compound X21] | 
26.04 | 2.17 | 0.72 | 0.7 | 26 | 2.2 |  | > 99 |  |  |  |  | O=C(NCCCc1ccccc1)c1ccc(N2CCN(C(=O)c3ccccc3C(F)(F)F)CC2)nc1 [Compound X03] | 
17.09 | 3.05 | 0.81 |  |  |  |  |  | 17 | 3.1 | 0.8 | 0.032 | CC(C)CCNC(=O)c1ccc(N2CCN(C(=O)c3ccccc3C(F)(F)F)CC2)nc1 [Compound X05] | 
44.42 | 7.77 | 1.75 | 1.8 | 44 | 7.8 |  |  |  |  |  |  | CCCCCNC(=O)c1ccc(N2CCN(C(=O)c3ccccc3Br)CC2)nc1 [Compound X13] | 
